For 6 compounds, remaining activity, remaining binding and Percent control results are on record in PMC4858680, “A platinum-based hybrid drug design approach to circumvent acquired resistance to molecular targeted tyrosine kinase inhibitors” (Scientific Reports, 2016).

Test [1] concerns the target T1, EPHB2 (Homo sapiens, UniProt P29323).
T1 sequence (P29323 19-1055): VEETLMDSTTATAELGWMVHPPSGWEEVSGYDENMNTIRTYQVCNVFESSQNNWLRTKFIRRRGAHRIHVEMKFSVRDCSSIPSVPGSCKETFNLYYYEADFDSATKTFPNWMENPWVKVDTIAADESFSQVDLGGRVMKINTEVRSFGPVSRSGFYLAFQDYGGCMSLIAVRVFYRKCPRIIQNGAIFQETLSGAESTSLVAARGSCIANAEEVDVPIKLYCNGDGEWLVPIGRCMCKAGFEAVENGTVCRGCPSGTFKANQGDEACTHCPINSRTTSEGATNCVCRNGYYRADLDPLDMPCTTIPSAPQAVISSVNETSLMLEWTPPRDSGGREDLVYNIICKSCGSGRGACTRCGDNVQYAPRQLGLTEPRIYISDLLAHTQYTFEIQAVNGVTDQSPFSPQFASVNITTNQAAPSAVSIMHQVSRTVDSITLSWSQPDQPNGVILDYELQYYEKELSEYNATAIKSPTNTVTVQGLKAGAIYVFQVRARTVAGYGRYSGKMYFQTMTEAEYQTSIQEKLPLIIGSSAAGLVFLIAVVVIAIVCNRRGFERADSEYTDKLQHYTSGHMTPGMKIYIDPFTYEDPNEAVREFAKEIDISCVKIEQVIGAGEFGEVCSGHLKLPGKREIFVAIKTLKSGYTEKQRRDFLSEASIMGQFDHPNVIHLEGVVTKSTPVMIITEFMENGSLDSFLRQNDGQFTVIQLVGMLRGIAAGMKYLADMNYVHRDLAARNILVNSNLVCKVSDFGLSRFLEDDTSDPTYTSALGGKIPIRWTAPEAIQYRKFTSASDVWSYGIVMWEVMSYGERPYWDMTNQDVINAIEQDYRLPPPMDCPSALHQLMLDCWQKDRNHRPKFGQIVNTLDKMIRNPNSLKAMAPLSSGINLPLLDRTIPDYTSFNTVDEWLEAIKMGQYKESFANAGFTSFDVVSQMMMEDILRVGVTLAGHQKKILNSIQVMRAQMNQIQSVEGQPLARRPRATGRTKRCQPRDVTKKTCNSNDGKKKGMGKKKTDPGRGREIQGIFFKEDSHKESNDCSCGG
The test can be described thus: biochemical. The conditions noted are these: read-out: Percent control.

The target in another test is T2, FER (Homo sapiens, UniProt P16591).
T2 construct: purchased DiscoveRx KINOMEscan
The test is classed as binding. Particulars: for Percent control: 10 μM.

Test [2] has as its target T1, EPHB2. The conditions noted are these: 10 μM.
The next test addresses RET (Homo sapiens, UniProt P07949). The conditions noted are these: 10 μM.
For a further test, the target named is EPHA5 (Homo sapiens, UniProt P54756). Particulars: 10 μM.
For a further test, the target named is T3, EPHB4 (Homo sapiens, UniProt P54760).
T3 sequence (P54760 16-987): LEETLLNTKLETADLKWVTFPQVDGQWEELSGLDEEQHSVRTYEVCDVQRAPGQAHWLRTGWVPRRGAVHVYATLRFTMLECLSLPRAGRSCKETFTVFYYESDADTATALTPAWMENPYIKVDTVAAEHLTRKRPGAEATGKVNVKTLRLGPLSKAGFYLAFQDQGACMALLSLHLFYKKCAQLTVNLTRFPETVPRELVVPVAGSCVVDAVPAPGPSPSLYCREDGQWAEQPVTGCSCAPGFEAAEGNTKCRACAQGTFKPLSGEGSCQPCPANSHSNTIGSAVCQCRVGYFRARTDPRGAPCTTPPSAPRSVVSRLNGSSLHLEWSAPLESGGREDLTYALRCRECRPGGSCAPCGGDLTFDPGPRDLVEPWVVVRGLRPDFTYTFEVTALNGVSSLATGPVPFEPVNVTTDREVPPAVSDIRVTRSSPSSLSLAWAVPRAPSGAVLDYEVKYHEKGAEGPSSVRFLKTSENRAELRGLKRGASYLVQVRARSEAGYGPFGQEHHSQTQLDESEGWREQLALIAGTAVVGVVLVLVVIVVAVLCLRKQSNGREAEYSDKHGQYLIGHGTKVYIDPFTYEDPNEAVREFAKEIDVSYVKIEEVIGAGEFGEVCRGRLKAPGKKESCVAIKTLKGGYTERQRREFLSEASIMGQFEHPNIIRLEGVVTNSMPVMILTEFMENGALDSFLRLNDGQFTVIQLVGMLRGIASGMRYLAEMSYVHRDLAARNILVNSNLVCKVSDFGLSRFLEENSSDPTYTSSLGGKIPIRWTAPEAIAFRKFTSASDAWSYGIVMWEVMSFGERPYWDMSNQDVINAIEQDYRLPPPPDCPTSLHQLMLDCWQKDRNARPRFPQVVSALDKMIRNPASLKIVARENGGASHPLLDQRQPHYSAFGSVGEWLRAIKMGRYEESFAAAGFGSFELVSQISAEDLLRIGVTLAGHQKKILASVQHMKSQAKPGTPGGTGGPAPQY
Particulars: 10 μM.

T2 sequence (P16591 whole entry): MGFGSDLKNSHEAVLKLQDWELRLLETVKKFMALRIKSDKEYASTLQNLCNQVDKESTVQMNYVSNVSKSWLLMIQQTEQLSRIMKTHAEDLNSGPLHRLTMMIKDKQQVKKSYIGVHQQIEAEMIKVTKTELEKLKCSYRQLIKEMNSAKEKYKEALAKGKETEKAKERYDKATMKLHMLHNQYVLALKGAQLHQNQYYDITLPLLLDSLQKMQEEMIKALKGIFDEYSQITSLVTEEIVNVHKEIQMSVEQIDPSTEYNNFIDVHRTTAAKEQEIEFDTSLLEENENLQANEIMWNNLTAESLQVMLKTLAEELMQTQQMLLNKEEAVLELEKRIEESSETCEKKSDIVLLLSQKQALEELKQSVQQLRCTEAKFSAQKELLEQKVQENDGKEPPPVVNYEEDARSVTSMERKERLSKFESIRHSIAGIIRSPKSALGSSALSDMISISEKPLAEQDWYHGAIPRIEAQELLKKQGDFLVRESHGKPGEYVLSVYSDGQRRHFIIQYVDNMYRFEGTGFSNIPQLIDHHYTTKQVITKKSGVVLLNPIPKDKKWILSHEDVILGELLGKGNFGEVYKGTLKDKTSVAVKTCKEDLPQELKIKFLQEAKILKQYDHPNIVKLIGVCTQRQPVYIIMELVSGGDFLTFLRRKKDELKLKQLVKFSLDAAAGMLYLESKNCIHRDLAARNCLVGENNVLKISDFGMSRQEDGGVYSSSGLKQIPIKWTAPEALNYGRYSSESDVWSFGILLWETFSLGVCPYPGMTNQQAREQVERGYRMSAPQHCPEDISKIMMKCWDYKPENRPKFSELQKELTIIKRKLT
Sequence of RET (P07949 29-1114): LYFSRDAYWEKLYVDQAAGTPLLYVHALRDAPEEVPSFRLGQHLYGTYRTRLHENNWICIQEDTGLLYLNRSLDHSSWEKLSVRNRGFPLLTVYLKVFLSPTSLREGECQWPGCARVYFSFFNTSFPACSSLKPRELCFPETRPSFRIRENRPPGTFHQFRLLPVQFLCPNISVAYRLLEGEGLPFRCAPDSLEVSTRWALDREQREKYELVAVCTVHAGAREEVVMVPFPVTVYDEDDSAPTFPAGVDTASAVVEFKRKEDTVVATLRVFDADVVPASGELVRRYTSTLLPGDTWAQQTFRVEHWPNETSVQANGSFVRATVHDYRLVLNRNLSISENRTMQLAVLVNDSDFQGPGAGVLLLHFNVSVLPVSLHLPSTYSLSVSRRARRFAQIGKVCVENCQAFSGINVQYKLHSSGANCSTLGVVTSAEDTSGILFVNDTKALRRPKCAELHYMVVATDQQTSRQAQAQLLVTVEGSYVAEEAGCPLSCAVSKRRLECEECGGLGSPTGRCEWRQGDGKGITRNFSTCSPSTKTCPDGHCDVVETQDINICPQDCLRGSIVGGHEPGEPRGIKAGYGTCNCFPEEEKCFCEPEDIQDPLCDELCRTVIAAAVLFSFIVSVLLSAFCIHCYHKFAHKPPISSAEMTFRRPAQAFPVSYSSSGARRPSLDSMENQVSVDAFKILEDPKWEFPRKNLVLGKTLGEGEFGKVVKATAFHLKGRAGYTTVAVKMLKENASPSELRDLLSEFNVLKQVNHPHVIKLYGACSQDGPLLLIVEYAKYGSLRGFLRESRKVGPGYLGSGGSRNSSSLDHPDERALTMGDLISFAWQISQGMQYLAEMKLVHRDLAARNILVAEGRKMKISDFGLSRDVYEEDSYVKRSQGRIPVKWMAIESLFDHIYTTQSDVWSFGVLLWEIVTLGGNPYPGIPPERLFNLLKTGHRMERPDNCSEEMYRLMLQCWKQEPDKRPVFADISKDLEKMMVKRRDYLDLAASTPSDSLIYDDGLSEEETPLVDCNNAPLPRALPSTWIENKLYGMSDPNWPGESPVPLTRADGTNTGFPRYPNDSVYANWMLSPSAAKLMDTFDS
Sequence of EPHA5 (P54756 25-1037): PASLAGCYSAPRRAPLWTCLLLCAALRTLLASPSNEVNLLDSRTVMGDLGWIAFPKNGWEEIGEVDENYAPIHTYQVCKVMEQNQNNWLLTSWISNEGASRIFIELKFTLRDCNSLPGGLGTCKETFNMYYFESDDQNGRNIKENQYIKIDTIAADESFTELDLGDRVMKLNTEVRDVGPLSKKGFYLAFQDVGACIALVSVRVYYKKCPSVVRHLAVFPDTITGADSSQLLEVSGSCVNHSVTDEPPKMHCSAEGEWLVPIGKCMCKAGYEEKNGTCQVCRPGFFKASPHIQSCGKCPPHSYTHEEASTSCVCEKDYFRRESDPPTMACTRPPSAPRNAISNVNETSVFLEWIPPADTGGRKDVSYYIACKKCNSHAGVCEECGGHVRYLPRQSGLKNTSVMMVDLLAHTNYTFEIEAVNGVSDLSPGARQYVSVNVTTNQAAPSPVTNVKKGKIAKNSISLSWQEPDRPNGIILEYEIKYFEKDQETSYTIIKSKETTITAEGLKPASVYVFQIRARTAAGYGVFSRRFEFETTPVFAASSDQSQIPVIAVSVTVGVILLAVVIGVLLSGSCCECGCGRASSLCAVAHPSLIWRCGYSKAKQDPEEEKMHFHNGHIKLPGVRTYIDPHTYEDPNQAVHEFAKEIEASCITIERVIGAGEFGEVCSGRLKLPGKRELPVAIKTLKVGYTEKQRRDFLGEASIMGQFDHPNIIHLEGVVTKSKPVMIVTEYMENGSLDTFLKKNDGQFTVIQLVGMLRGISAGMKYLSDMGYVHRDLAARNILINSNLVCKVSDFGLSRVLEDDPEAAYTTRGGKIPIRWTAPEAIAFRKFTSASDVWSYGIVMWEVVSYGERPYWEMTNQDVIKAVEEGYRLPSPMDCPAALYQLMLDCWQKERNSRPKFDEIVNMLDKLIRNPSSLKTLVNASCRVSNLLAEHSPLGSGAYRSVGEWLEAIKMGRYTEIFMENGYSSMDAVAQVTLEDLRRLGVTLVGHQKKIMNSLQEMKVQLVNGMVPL

Regarding `COc1cc2c(Nc3ccc(Br)cc3F)ncnc2cc1OCC1CCN(C)CC1` [Vandetanib, reference compound], the remaining activity at 10 µM on EPHB2 [1] was determined as 4.2%. For the same compound, the remaining binding at 10 µM on FER (read-out: Percent control) is 100%.
Take `Cc1ccc(NC(=O)c2ccc(CN3CCN(C)CC3)cc2)cc1Nc1nccc(-c2cccnc2)[n+]1[Pt-2]1([Cl])[NH2+]C2CCCCC2[NH2+]1` (stereo not drawn) [1b, oxaliplatin-imatinib]: the Percent control on EPHB2 [2] is reported as 95%; on FER, 89%; at RET, 95%; on EPHA5 it was 100%; on EPHB4, 100%.
As for `C#Cc1cccc(Nc2ncnc3cc(OCCOC)c(OCCOC)cc23)c1` [Erlotinib], the remaining activity at 10 µM on EPHB2 [1] turned out to be 100%.
As for `COc1cc2c(Nc3ccc(Br)cc3F)[n+]([Pt-2]3([Cl])[NH2+]C4CCCCC4[NH2+]3)cnc2cc1OCC1CCN(C)CC1` (stereo not drawn) [3b, oxaliplatin-vandetanib], the Percent control is 69% at EPHB2 [2], 90% on FER, 78% on EPHA5 and 35% on EPHB4.
As for `C#Cc1cccc(Nc2c3cc(OCCOC)c(OCCOC)cc3nc[n+]2[Pt@SP2-2]([NH3+])([NH3+])[Cl])c1` [2a, cisplatin-erlotinib], the Percent control on EPHB2 [2] turned out to be 94%; on FER, 95%; on RET it was 46%; on EPHA5, 100%; at EPHB4 it was 91%.
As to `Cc1ccc(NC(=O)c2ccc(CN3CCN(C)CC3)cc2)cc1Nc1nccc(-c2cccnc2)n1` [Imatinib, reference compound], the remaining activity at 10 µM on EPHB2 [1] amounted to 100%. The Percent control on FER, on RET and at EPHB4 was 100% each time.
